Values quoted from earlier work in PMC12281572.

Experiment: FTIR, 4-fluorophenol as donor (the pK_BHX database, per the paper)
Conditions: CCl4; 25 C

SMILES	pK_BHX (log10 Kf of the 1:1 H-bond complex with 4-fluorophenol, by FTIR) [log units]
CN(C)C=NS(=O)(=O)c1ccccc1	1.51
C1C2CC3CC1CC(C2)C3C1OC1C1C2CC3CC(C2)CC1C3 (stereo not shown)	1.44
CCOC(=O)c1ccc(Br)cc1	0.78
Cc1cc(C(C)(C)C)nc(C(C)(C)C)c1	-0.45
c1ccc(-c2ccnc3c2ccc2c(-c4ccccc4)ccnc23)cc1	3.26
CCN(CC)C(=O)c1ccccc1	2.26
CC(C)SC(C)C	0.3
CCN(CC)C(=O)c1ccc(OC)cc1	2.35
CC(C)(C)c1ccncc1	2.11
CNC(C)=S	1.14
C1CCSCC1	0.23
Brc1ccccn1	1.03
CN1CCN(C)C1=S	1.32
CN(C)c1ccc(C#N)cc1	1.23
CN=C(c1ccc(C)cc1)N(C)C	2.72
CC(=O)c1ccc(N2CCCCC2)cc1	1.71
CCS	-0.16
CCNC	2.25
CNc1ccc(Cl)cc1	0.05
c1cnc2c(c1)ccc1cccnc12	3.1
CCN(C)Cc1cccc(C(F)(F)F)c1	1.03
Cc1cc(C)c(C)c(C)c1C	-0.07
Cc1ccccn1	2.03
CC(C)N(C=O)C(C)C	2.24
CCN(C#N)CC	1.63
C1COCCOCCOCCOCCO1	1.12

SMILES	pK_BHX (log10 Kf of the 1:1 H-bond complex with 4-fluorophenol, by FTIR) [log units]
CCOC(=O)c1ccc(F)cc1	0.88
COC(C(F)(F)F)C(F)(F)F	-0.41
OCC(F)(F)F	-0.28
CCCCCI	-0.37
CCOC(=O)c1ccccc1	0.94
CC(=O)N(C)c1ccccc1	2.19
Fc1cccc(C2=NCCC2)c1	1.66
Oc1cccc(C(F)(F)F)c1	-0.36
CCNC(C)=O	2.29
CCCCN1CCCC1	2.04
COc1ccc(C(=O)N(C)C)cc1	2.31
NCCCN	2.31
COC(=O)OC	0.82
CCN(CC)c1ccc(C(C)=O)cc1	1.82
CN(C)C=NC12CC3CC(CC(C3)C1)C2	2.52
C1=CCNCC1	2.16
CC(C)c1ccccn1	1.76
c1ccc2c(c1)CCCN2	0.7
N#Cc1ccccc1F	0.64
Nc1ccccn1	2.12
CC1(C)CC(=O)C=C(Cl)C1	1.21
O=COc1ccccc1	0.35
C1COCOC1	0.63
Nc1cccc(F)c1	0.2
CCOC(C)(C)C	1.08
Cc1cccc(C)c1	-0.28

SMILES	pK_BHX (log10 Kf of the 1:1 H-bond complex with 4-fluorophenol, by FTIR) [log units]
COC(C)=O	1.0
NCc1cccc(Cl)c1	1.55
NC1CC1	1.72
Cc1ccc2c(c1)CN1CN2Cc2cc(C)ccc21	-0.26
COc1cccc(CN=CN(C)C)c1	2.4
CC(=O)c1ccc(C)cc1	1.24
O=C1CCC1	1.0
CNc1ccc(C)cc1	0.43
CNC(C)C	2.2
CN(C)C=NC(C)(C)C	2.41
COc1ccccc1C	-0.37
OCc1ccccc1	0.86
CC(C)I	-0.37
FC1C2CC3CC(C2)CC1C3 (stereo not shown)	-0.02
CCOC(=O)N(C)C	1.83
CN1CCCNC1=S	2.0
COc1ccc(N=CN(C)C)cc1	2.08
N#Cc1c(F)c(F)c(F)c(F)c1F	0.01
CN(C)C=NCc1ccc(Cl)cc1	2.12
CCN(C)Cc1ccccc1	1.47
O=c1ccocc1	2.03
CCC(C)=O	1.22
CCCCc1ccccn1	1.88
COC(=O)C1CCCCC1	1.06
Cc1nc2ccccc2o1	1.48
COc1cccc(OC)c1	-0.08

SMILES	pK_BHX (log10 Kf of the 1:1 H-bond complex with 4-fluorophenol, by FTIR) [log units]
C1=CCCCC1	-0.82
Cn1ccccc1=O	2.5
CCCSC	0.16
CN(C)C=O	2.1
c1ccc(C2CCCCC2)cc1	-0.32
CC(C)(C)OC(C)(C)C	0.75
CCN(C)C	2.17
C#CCCC#C	-0.43
N#CN1CCOCC1	1.34
Cc1ccc(N=CN(C)C)cc1	2.07
c1ccc(-c2nc3ccccc3o2)cc1	1.18
NCC(F)(F)F	0.71
C1CCSC1	0.32
Ic1cccnc1	1.37
Cc1ccnc(C)c1	2.21
COc1cccc(CN)c1	1.94
COc1ccccc1C#N	1.06
CC(C)CN(C(C)C)C(C)C	0.3
C#CC(C)=O	0.68
Cc1cccc(C)c1C#N	0.86
Cn1cncc1Br	2.22
c1ccc2c(c1)ccc1ccccc12	-0.53
C#CCN(C)C	1.6
CN(C)C=Nc1ccc(C(F)(F)F)cc1	1.43
C1CNC1	2.59
